Data as given in US5576296A, “Galanin antagonist” (priority 1991, dated 1996).
Square brackets hold non-standard residues; d marks the D form. Ends that are not written are not given here. Peptide text beside a SMILES is read from it.

Assays:
[1] = system: galanin receptor; test: Displacement of 125I-galanin from membranes of Rin m 5F cells; format: binding, rat; settings: Rin m 5F membranes
Method: 4) Ligand binding studies were conducted. Displacement of ^125 I-galanin by galanin, galanin fragment (1-13), Substance P fragment (4-11), galanin fragment (1-13) + Substance P fragment (4-11) in equimolar concentrations and the peptides of the invention M15, M35 and M34, A was studied.
Synthetic porcine galanin(1-29) was iodinated by chloramine-T-method to yield ^125 I-monoiodo-Tyr^26 -porcine galanin (specific activity 1800-2000 Ci/mmol), (as described by Land T., et al in: Methods in Neurosciences, Ed. M. Conn, 5, 1991, 225-234), and employed in ligand binding studies carried out at equilibrium.
The establishment and cell culture of Rin m 5F (a rat pancreatic β-tumor cell-line) cells have been described earlier (Gazdav A. F., et. al. Proc. Natl. Acad. Sci. USA, 77 (1980) 3519-3523). Briefly, the cells were grown in RPMI-1640 (Gibco) medium containing 10% (v/v) fetal calf serum, 2.06 mM L-gluthamine, 100 IU/ml penicillin and 100 μg/ml streptomycin in 10% CO2 -90% air 37° C. They were passaged every 5 days. The cells were detached from the surface of the bottles using 0.25% trypsin containing 1 mM EDTA and centrifuged at 2000 × g for 5 min at 4° C. The pellet was exposed for 15 min to hypoosmotic 5 mM HEPES buffer (pH 7.4). The suspension was centrifuged at 20000 × g for 15 min, the resulting pellet was resuspended in bacitracin-containing ([…]) 5 mM HEPES-buffered Krebs-Ringer solution (137 mM NaCl, […], 1.8 mM CaCl2, 1 g/1 glucose), pH 7.4, and used immediately in equilibrium binding experiments.
Displacement experiments were carried out in a final volume of 400 μl of bacitracin-containing (1 mg/ml) HEPES-buffered (5 mM) Krebs-Ringer solution, 0.05% (w/v) of BSA (pH 7.4) in the presence of 0.1-0.2 nM ^125 I-galanin, the membrane preparation and the increasing concentrations (10^-12 -10^-6 M) of unlabeled porcine galanin or of other galanin receptor ligands. Samples were incubated for 30 min at 37° C. Incubation was terminated by the addition of 10 ml of ice-cold HEPES-buffered Krebs-Ringer solution, followed by rapid filtration over Whatman GF/C filters, precoated for 5-6 hours in 0.3% (v/v) of polyethyleneimine solution. Filters were washed with 10 ml of assay solution. Radioactivity retained on the filters was determined in a Packard gamma counter. Specific binding was defined as that displaceable by 1 μM galanin (or appropriate concentration of a displacer).
The IC50 values of the displacing ligands were calculated from the computer-generated IC50 values as described by Land, T., et. al. (ibid).
Fitting of the experimental data was carried out on a Macintosh SE by means of a nonlinear least squares method using the Macintosh program "KaleidGraph".

[2] = target: galanin receptor; test: Displacement of 125I-galanin, membranes from rat hypothalamus; format: binding; settings: for IC50: displacement experiments in rat hypothalamus, 125I-galanin
Method: Adult male rats (Sprague-Dawley, 180-200 g) were decapitated, the hypothalami quickly dissected and homogenized (10% mass/vol.) in 0.05M TRIS-Cl buffer, pH 7.4. The homogenate was diluted tenfold and centrifuged at 1000 × g for 10 min. The supernatant was centrifuged at 10,000 × g for 45 min and the pellet resuspended in 5 mM Hepes buffered Krebs-Ringer solution (137 mM NaCl, 2.68 mM KCl, 1.8 mM CaCl2 1 g/1 glucose), pH 7.4 to yield a final protein concentration of 1.0-1.5 mg/ml.
Displacement experiments were carried out in a final volume of 400 μl of Hepes-buffered (5 mM) Krebs-Ringer solution, 0.05% (w/v) of BSA (pH 7.4 ) supplemented with bacitracin (1 mg/ml ) in the presence of 0.1-0.2 nM 1251-galanin, the membrane preparation from rat hypothalami and increasing concentrations (10-12, 10^-6M) of unlabeled galanin or of other galanin recepto-ligands. Samples were incubated for 30 min at 37° C. Incubation was terminated by the addition of 10 ml of ice-cold Hepes-buffered Krebs-Ringer solution, followed by rapid filtration over Whatman GF/C filters, precoated for 5-6 hours in 0.3% (v/v) of polyethylencimine solution. The filters were washed with 10 ml of assay solution. Radioactivity retained on the filters was determined in a Packard gamma counter. Specific binding was defined as that displaceable by 1 μM galanin.
The 1C50 values of the displacing ligands were calculated by fitting of the experimental data on a Macintosh SE by means of a nonlincar least squares method using the program "KaleidaGraph".

Compound | IC50 [2] | also measured
Substance P fragment (4-11): fragment 4-11 of Substance P (PQQFFGLM; ends and bridges not checked; UniProt P20366 61-68, looked up, fragment) [reference compound] | – | IC50 ([1]; read-out: IC50 (no displacement)): > 10000 nM
GWTLNSAGYLLGPALALALA-NH2 [M 38, Galanin(1-13)-AlaLeuAlaLeuAlaLeuAla amide] | 0.2 nM | –
CC(C)C[C@H](NC(=O)[C@H](CC(C)C)NC(=O)[C@H](Cc1ccc(O)cc1)NC(=O)CNC(=O)[C@H](C)NC(=O)[C@H](CO)NC(=O)[C@H](CC(N)=O)NC(=O)[C@H](CC(C)C)NC(=O)[C@@H](NC(=O)[C@H](Cc1c[nH]c2ccccc12)NC(=O)CN)[C@@H](C)O)C(=O)NCC(=O)N1CCC[C@H]1C(=O)O [Galanin fragment (1-13), reference compound] | – | IC50 ([1]; read-out: IC50): 100 nM
GWTLNSAGYLLGARHYINLITRQRY-NH2 [M 88, Galanin(1-12)-Ala-NPY(25-36) amide] | 1 nM | –
CC[C@H](C)[C@H](NC(=O)[C@H](Cc1ccc(O)cc1)NC(=O)[C@H](Cc1c[nH]cn1)NC(=O)[C@H](CCCNC(=N)N)NC(=O)[C@@H]1CCCN1C(=O)CNC(=O)[C@H](CC(C)C)NC(=O)[C@H](CC(C)C)NC(=O)[C@H](Cc1ccc(O)cc1)NC(=O)CNC(=O)[C@H](C)NC(=O)[C@H](CO)NC(=O)[C@H](CC(N)=O)NC(=O)[C@H](CC(C)C)NC(=O)[C@@H](NC(=O)[C@H](Cc1c[nH]c2ccccc12)NC(=O)CN)[C@@H](C)O)C(=O)N[C@@H](CC(N)=O)C(=O)N[C@@H](CC(C)C)C(=O)N[C@H](C(=O)N[C@H](C(=O)N[C@@H](CCCNC(=N)N)C(=O)N[C@@H](CCC(N)=O)C(=O)N[C@@H](CCCNC(=N)N)C(=O)N[C@@H](Cc1ccc(O)cc1)C(N)=O)[C@@H](C)O)[C@@H](C)CC [M 32, Galanin(1-13)-NPY(25-36) amide] | 0.05 nM | –
CC(C)C[C@H](NC(=O)[C@H](CC(C)C)NC(=O)[C@@H](Cc1c[nH]c2ccccc12)NC(=O)[C@H](Cc1ccccc1)NC(=O)[C@@H](Cc1c[nH]c2ccccc12)NC(=O)[C@H](CCC(N)=O)NC(=O)[C@H](CCC(N)=O)NC(=O)[C@@H]1CCCN1C(=O)[C@H](CCCCN)NC(=O)[C@@H]1CCCN1C(=O)[C@@H](CCCNC(=N)N)NC(=O)[C@@H]1CCCN1C(=O)CNC(=O)[C@H](CC(C)C)NC(=O)[C@H](CC(C)C)NC(=O)[C@H](Cc1ccc(O)cc1)NC(=O)CNC(=O)[C@H](C)NC(=O)[C@H](CO)NC(=O)[C@H](CC(N)=O)NC(=O)[C@H](CC(C)C)NC(=O)[C@@H](NC(=O)[C@H](Cc1c[nH]c2ccccc12)NC(=O)CN)[C@@H](C)O)C(N)=O [C 7, Galanin(1-12)-Pro-Spantide amide] (H-GWTLNSAGYLLGP[dR]PKPQQ[dW]F[dW]LL-NH2; N-terminus assumed) | 0.2 nM | –
CC(C)C[C@H](NC(=O)[C@H](CC(C)C)NC(=O)[C@H](Cc1ccc(O)cc1)NC(=O)CNC(=O)[C@H](C)NC(=O)[C@H](CO)NC(=O)[C@H](CC(N)=O)NC(=O)[C@H](CC(C)C)NC(=O)[C@@H](NC(=O)[C@H](Cc1c[nH]c2ccccc12)NC(=O)CN)[C@@H](C)O)C(=O)NCC(=O)N1CCC[C@H]1C(=O)N[C@@H](CCCCNC(=O)[C@@H]1CCCN1C(=O)[C@H](CC(C)C)NC(=O)[C@H](Cc1ccccc1)NC(=O)CNC(=O)CNC(=O)[C@@H](N)Cc1ccc(O)cc1)C(N)=O [M34,A, Galanin(1-13)-Lys amide (Pro-Leuenkephalin(5-1))] | 10 nM | IC50 ([1]; read-out: IC50): 10 nM
Rat galanin: galanin of rat sequence, unlabeled displacer [reference compound] | – | Displacement curves, rat versus porcine galanin ([2]; membranes from rat hypothalami): indistriguishable displacement curves
GWTLNSAGYLLGPPGFSPFR-NH2 [M20, Galanin(1-13)-Bradykinin(3-9) amide] | 1 nM | –
GWTLNSAGYLLGPPPYGGFL-NH2 [M 36, Galanin(1-12)-ProProPro-Leuenkephalin(1-5) amide] | 40 nM | –
CC(C)C[C@H](NC(=O)[C@H](CC(C)C)NC(=O)[C@H](Cc1ccc(O)cc1)NC(=O)CNC(=O)[C@H](C)NC(=O)[C@H](CO)NC(=O)[C@H](CC(N)=O)NC(=O)[C@H](CC(C)C)NC(=O)[C@@H](NC(=O)[C@H](Cc1c[nH]c2ccccc12)NC(=O)CN)[C@@H](C)O)C(=O)NCC(=O)N1CCC[C@H]1C(=O)N1CCC[C@H]1C(=O)N1CCC[C@H]1C(=O)NCC(=O)N[C@@H](Cc1ccccc1)C(=O)N[C@@H](CO)C(=O)N1CCC[C@H]1C(=O)N[C@@H](Cc1ccccc1)C(=O)N[C@@H](CCCNC(=N)N)C(N)=O [M 35, Galanin(1-13)-Bradykinin(2-9) amide] | 0.2 nM | IC50 ([1]; read-out: IC50): 0.1 nM
GWTLNSAGYLLGPPPLFGGY-NH2 [M36,A, Galanin(1-12)-ProProPro-Leuenkephalin(5-1) amide] | 20 nM | –
GWTLNSAGYLLGPPPQQFFGLM-NH2 [M37, Galanin(1-12)-ProProPro-SP(5-11) amide] | 40 nM | –
GWTLNSAGYLLGPPPALALA-NH2 [M 40, Galanin(1-12)- -ProProProAlaLeuAlaLeuAla amide] | 13 nM | –
